Test systems include ACHN; CCRF-CEM; HOP-62; KM12; MOLT-4; Malme-3M; NCI-H23; NCI-H460; OVCAR-5; OVCAR-8; RPMI-8226; RXF 393; SK-MEL-28; SK-MEL-2; SN12C; SNB-75; SW-620; TK-10; UACC-62; UO-31.
Common to all, as to assay: NCI tumour cell line growth inhibition, 48 h

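Step 1: Grow cells in 96-well plates. Step 2: Expose to compound for 48 hours at 5 concentrations. Step 3: Interpolate endpoints linearly; if unreached, use highest concentration. Abbreviation: GI50, concentration required for 50% inhibition of growth.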 The source made the active and inactive calls. Cut-off read from the data, not from the text of the source: active = GI50 up to about 1.1 µM and inactive = higher. Some results are limits rather than exact numbers.

Regarding `Cc1cc(C)n(-c2ccnc3cc(Cl)ccc23)n1`, the GI50 with ACHN, with CCRF-CEM, in the assay with HOP-62, with KM12, in the assay with MOLT-4 and in the assay with Malme-3M was > 100 µM (inactive) each time. Also, the GI50 in the assay with NCI-H23, in the assay with NCI-H460, in the assay on OVCAR-5, with OVCAR-8, in the assay with RPMI-8226 and in the assay on RXF 393 was > 100 µM (inactive) each time. The GI50 in the assay on SK-MEL-28, in the assay on SK-MEL-2, in the assay on SN12C, in the assay on SNB-75, in the assay on SW-620 and in the assay on TK-10 was > 100 µM (inactive) each time. Further, the GI50 is > 100 µM (inactive) with UACC-62 and 91.6 µM (inactive) with UO-31.
As for `O=[As](O)(O)c1cc(/N=N/c2ccc(-c3ccc(/N=N/c4cc([As](=O)(O)O)c(O)cc4O)cc3)cc2)c(O)cc1O`, the GI50 in the assay on ACHN was > 100 µM (inactive); in the assay on CCRF-CEM it was > 45.8 µM (inactive); in the assay with HOP-62, > 100 µM (inactive); in the assay on KM12, > 100 µM (inactive); in the assay with MOLT-4 it was > 100 µM (inactive); with Malme-3M, > 69.2 µM (inactive). Besides, the GI50 in the assay with NCI-H23 was > 100 µM (inactive); in the assay on NCI-H460 it was > 100 µM (inactive); in the assay with OVCAR-5, > 69.5 µM (inactive); in the assay on OVCAR-8, > 100 µM (inactive); in the assay with RPMI-8226, > 100 µM (inactive); in the assay with RXF 393, > 100 µM (inactive). The GI50 with SK-MEL-28, in the assay on SK-MEL-2, in the assay with SN12C, in the assay on SNB-75, with SW-620 and in the assay on TK-10 was > 100 µM (inactive) in each case. In addition, the GI50 in the assay with UACC-62 and in the assay on UO-31 was > 100 µM (inactive) throughout.
With `CO[C@H]1C[C@H](O[C@H]2CC[C@]3(C=O)[C@H]4CC[C@]5(C)[C@@H](C6=CC(=O)OC6)CC[C@]5(O)[C@@H]4CC[C@]3(O)C2)O[C@H](C)[C@H]1O[C@@H]1O[C@H](CO[C@@H]2O[C@H](CO)[C@@H](O)[C@H](O)[C@H]2O)[C@@H](O)[C@H](O)[C@H]1O`, the GI50 is 0.0186 µM (active) in the assay on ACHN; > 100 µM (inactive) with CCRF-CEM; 0.0158 µM (active) in the assay on HOP-62; 0.104 µM (active) in the assay with KM12; 0.0215 µM (active) in the assay with MOLT-4; 0.0588 µM (active) with Malme-3M. The GI50 in the assay on NCI-H23 is 0.016 µM (active); with NCI-H460, < 0.0132 µM (active); in the assay on OVCAR-5 it was 0.0671 µM (active); in the assay on OVCAR-8, 0.0434 µM (active); in the assay on RPMI-8226 it was 0.139 µM (active); in the assay on RXF 393, 0.0251 µM (active). Further, the GI50 with SK-MEL-28 is 0.349 µM (active); in the assay with SK-MEL-2, 0.235 µM (active); in the assay with SN12C it was 0.0289 µM (active); with SNB-75, 0.11 µM (active); with SW-620, 0.0593 µM (active); in the assay with TK-10, 0.0279 µM (active). Further, the GI50 in the assay with UACC-62 was 0.223 µM (active); in the assay with UO-31, 0.0405 µM (active).

The values above are taken from ChEMBL document CHEMBL1201862, “PubChem BioAssay data set” (2004).
